Measurements as given in PMC10498667 (Chemical Science, 2023).
Where two headings read alike, the source gives them in different places.

Legend:
[1] = biological target: T1, Electric eel acetylcholinesterase (eeAChE) (Electrophorus electricus, UniProt O42275); assay: Fluorometric AChE activity assay; type: biochemical
T1 construct: purchased Invitrogen (AChE assay kit)
Description: Inhibiting the activity of AChE can maintain a proper level of ACh under dysregulated cholinergic conditions.[10,11] Thus, the inhibitory capability of flavonoids against AChE was investigated by a previously reported fluorescent AChE assay with slight modifications.[60] […] The inclusion of three hydroxyl groups on the A ring is critical for controlling the catalytic activity of AChE, as previously reported,[49] whereas the incorporation of a chloro substituent, with three hydroxyl groups, and methoxy moieties instead of hydroxyl groups on the A ring can decrease such inhibitory activity. Flavonoids 2, 3, and 1b over 1 illustrates the importance of the position of hydroxyl groups on the A ring and the isoflavone variation in directing the flavonoids' ability to inhibit the activity of AChE. […]
All experiments were performed in triplicate.
AChE Activity Assay. The AChE inhibitory activity of flavonoids was measured by a fluorometric AChE assay kit (Invitrogen) following the manufacturer ’s protocol with slight modifications.
Electric eel acetylcholinesterase (eeAChE) was dissolved and diluted with a working solution. The eeAChE solution (50 µL) was added into a 96-well plate. Various concentrations of flavonoids were then introduced into the 96-well plate. The final concentrations of flavonoids were as follow: […]
µM). After shaking, the mixture of eeAChE and flavonoids was pre-incubated for 15 min. A reaction mixture containing acetylcholine, an AChE probe, and AbRedTM was added into the 96-well plate to initiate the reaction. The AChE activity was calculated based on the fluorescence intensity (lex/lem = 571/585 nm) of the wells that was detected after 15 min incubation. Data were normalized to the control (no inhibitor). All experiments were performed in triplicate. […]
For the disaggregation studies, Ab (25 µM) was incubated with and without CuCl2 or ZnCl2 (25 µM) for 24 h at 37 °C with constant agitation to generate preformed Ab aggregates. The resultant Ab aggregates were then treated with flavonoids (50 µM) and incubated for additional 24 h with constant agitation. For the additional disaggregation experiments, preformed Ab42 aggregates (25 µM) or Ab42 seeds (10% v/v) with or without metal ions (25 µM for CuCl2 and ZnCl2) were incubated with flavonoids (50 µM) for 24 h with constant agitation. The resultant Ab aggregates were then treated with freshly prepared Ab42

[2] = biological target: T2, Aβ42 (Homo sapiens, UniProt P05067); assay: Aβ42 aggregation inhibition experiments (gel/western blot, TEM); type: biochemical; settings: flavonoid 50 μM, 24 h
T2 construct: purchased Peptide Institute, Inc. (Osaka, Japan)
Description: To verify whether a series of nine flavonoids can modulate the aggregation of Aβ with and without metal ions, the molecular weight (MW) distribution and morphology of the resultant Aβ species were determined by gel electrophoresis with western blotting (gel/western blot) using an anti-Aβ antibody (6E10) and transmission electron microscopy (TEM), respectively. Two types of experiments were carried out employing two major Aβ isoforms, i.e., Aβ42 and Aβ40:[25] (i) inhibition studies to identify the effect of 1–5, 1a, 1b, 4a, and 4b on the formation of Aβ aggregates; (ii) disaggregation studies to evaluate if the flavonoids with reactivities towards Aβ aggregation in inhibition studies can disassemble preformed Aβ aggregates or modulate their further aggregation, as illustrated in Fig. 4 and S5–S9. ^† Moreover, the solutions containing the flavonoids and Cu(II) were probed by electronic absorption (Abs) spectroscopy to monitor their metal binding. […] As expected, no Abs change of 1a and 4a composed of methoxy groups on the A ring was detected by addition of Cu(II). […]
Ab Aggregation Experiments. Ab was dissolved in ammonium hydroxide [1% w/w NH4OH (aq)] and the resulting solution was aliquoted, lyophilized overnight, and stored at –80 °C. A stock solution of Ab was then prepared by dissolving the lyophilized peptide with NH4OH (1% w/w, aq; 10 µL) and diluting with ddH2O. All Ab samples were prepared following previously reported procedures.21,22 The concentration of the peptide solution was determined by measuring its […]
solution (20 mM HEPES, pH 7.4, 150 mM NaCl) was used for preparing Ab samples. For the inhibition studies, flavonoids (final concentration, 50 µM; 1% v/v DMSO) were added to the samples of Ab (25 µM) in the absence and presence of CuCl2 or ZnCl2 (25 µM) followed by incubation for 24 h at 37 °C with constant agitation. For the disaggregation studies, Ab (25 µM) was incubated with and without CuCl2 or ZnCl2 (25 µM) for 24 h at 37 °C with constant agitation to generate preformed Ab aggregates. The resultant Ab aggregates were then treated with flavonoids (50 µM) and incubated for additional 24 h with constant agitation. For the additional disaggregation experiments, preformed Ab42 aggregates (25 µM) or Ab42 seeds (10% v/v) with or without metal ions (25 µM for CuCl2 and ZnCl2) were incubated with flavonoids (50 µM) for 24 h with constant agitation. The resultant Ab aggregates were then treated with freshly prepared Ab42 […]
(25 µM) and incubated for additional 24 h with constant agitation.
Gel/Western Blot. The resultant Ab species from the aggregation experiments were analyzed by gel/Western blot using an anti-Ab antibody (6E10, Covance, Princeton, NJ, USA).21,22 Each sample (10 µL) was separated on a 10–20% tricine gel (Invitrogen). Following separation, the proteins were transferred onto nitrocellulose membranes and blocked with bovine serum albumin (BSA, 3% w/v; Sigma-Aldrich) in Tris-buffered saline (TBS) containing 0.1% v/v Tween-20 (Sigma-Aldrich) (TBS-T) for 4 h at room temperature or overnight at 4 °C. The membranes were incubated with 6E10 (1:2,000) in the solution of BSA (2% w/v in TBS-T) for 4 h at room temperature. […] A homemade ECL kit21–23 was used to visualize gel/Western blots on a ChemiDoc MP Imaging System (Bio-Rad).
TEM. Samples for TEM were prepared following previously reported methods.22,24 Glow-discharged grids (Formvar/Carbon 300-mesh; Electron Microscopy Sciences, Hatfield, PA, USA) were treated with Ab samples (25 µM; 7.5 µL) for 2 min at room temperature. Excess sample was removed using filter paper followed by washing with ddH2O (3x). Each grid incubated with uranyl […]

[3] = fluorometric assay, eeAChE, read-out: IC50 for AChE inhibition
[4] = Cu(II)–Aβ42, Aβ 25 μM, Cu(II) 25 μM
[5] = Zn(II)–Aβ42, Aβ 25 μM, Zn(II) 25 μM

T2 sequence (P05067 672-713 limits assumed): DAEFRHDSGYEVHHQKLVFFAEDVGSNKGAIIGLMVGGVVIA
T1 sequence (O42275 24-633): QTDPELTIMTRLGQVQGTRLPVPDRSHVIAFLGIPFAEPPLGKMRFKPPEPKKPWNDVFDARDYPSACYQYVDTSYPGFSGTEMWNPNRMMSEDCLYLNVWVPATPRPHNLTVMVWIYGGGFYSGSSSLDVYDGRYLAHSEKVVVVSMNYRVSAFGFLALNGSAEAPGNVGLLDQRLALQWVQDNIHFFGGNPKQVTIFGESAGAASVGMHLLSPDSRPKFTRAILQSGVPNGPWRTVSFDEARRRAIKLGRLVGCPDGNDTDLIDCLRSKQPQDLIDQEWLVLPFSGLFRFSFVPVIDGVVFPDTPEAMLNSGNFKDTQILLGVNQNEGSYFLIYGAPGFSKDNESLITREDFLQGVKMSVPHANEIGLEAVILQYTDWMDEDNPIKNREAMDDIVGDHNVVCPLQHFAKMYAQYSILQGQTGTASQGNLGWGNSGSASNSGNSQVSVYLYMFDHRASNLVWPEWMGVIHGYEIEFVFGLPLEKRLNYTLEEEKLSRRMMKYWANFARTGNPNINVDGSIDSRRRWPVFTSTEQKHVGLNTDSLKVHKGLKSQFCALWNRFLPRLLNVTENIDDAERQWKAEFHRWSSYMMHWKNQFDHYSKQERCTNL

| SMILES | IC50 [1, 3] | MW distribution of resultant species (gel/western blot) [2, 4] | morphology of resultant aggregates (TEM) ([2]; Cu(II)–Aβ42) | MW distribution of resultant species (gel/western blot) [2, 5] | morphology of resultant aggregates (TEM) ([2]; Zn(II)–Aβ42) | MW distribution of resultant species (gel/western blot) ([2]; metal-free Aβ42 25 μM, 37 °C) | morphology of resultant aggregates (TEM) ([2]; metal-free Aβ42) | IC50 [1] | inhibitory activity against AChE (IC50 could not be obtained) ([1]; fluorometric assay, eeAChE) |
| --- | --- | --- | --- | --- | --- | --- | --- | --- | --- |
| O=c1c(-c2ccc(O)c(O)c2)coc2cc(O)c(O)c(O)c12 [compound 6, 3-(3,4-dihydroxyphenyl)-5,6,7-trihydroxy-4H-chromen-4-one] | 0.19 µM | smearing bands from ca. 20–240 kDa were noticeably detected | chopped fibrils | smearing bands from ca. 20–240 kDa were noticeably detected | a mixture of amorphous and fibrillary aggregates | reduced at ca. 4–20 kDa and above ca. 100 kDa | shorter and thinner fibrils | – | – |
| O=c1cc(-c2ccccc2)oc2c(Cl)c(O)c(O)c(O)c12 [compound 5, 8-chlorobaicalein] | 12.3 µM | – | A mixture of amorphous and small fibrillary aggregates | smearing bands at ca. 25–240 kDa | both amorphous and fibrillary Zn(II)–Aβ42 aggregates | discernably reduced the signal intensity of the bands | smaller fibrils and less structured aggregates | – | – |
| O=c1cc(-c2ccccc2)oc2cc(O)c(O)cc12 [compound 2, 6,7-dihydroxyflavone] | – | – | did not indicate any noticeable morphological changes | a significant change in the MW distribution was not indicated | did not indicate any noticeable morphological changes | – | – | 4.18 µM | – |
| O=c1c(-c2ccccc2)coc2cc(O)c(O)c(O)c12 [4b, 5,6,7-trihydroxyisoflavone] | 1.4 µM | – | chopped and thin fibrils | smearing bands at ca. 25–240 kDa | small amorphous aggregates | discernably reduced the signal intensity of the bands | smaller fibrils and less structured aggregates | – | – |
| O=c1cc(-c2ccccc2)oc2cc(O)cc(O)c12 [compound 1, chrysin] | – | – | did not indicate any noticeable morphological changes | a significant change in the MW distribution was not indicated | did not indicate any noticeable morphological changes | – | – | – | negligible inhibitory activity |
| O=c1cc(-c2ccccc2)oc2ccc(O)c(O)c12 [compound 3, 5,6-dihydroxyflavone] | 4.51 µM | more intense smearing | A mixture of amorphous and small fibrillary aggregates | increased signal intensity between ca. 25–75 kDa | small amorphous aggregates | – | – | – | – |
| O=c1cc(-c2ccccc2)oc2cc(O)c(O)c(O)c12 [compound 4, baicalein] | – | enhanced level of dodecameric or larger Aβ42 aggregates | chopped and thin fibrils | smearing bands at ca. 25–240 kDa | chopped fibrils and amorphous assemblies | discernably reduced the signal intensity of the bands | shorter and thinner fibrils | 1.95 µM | – |
